According to PubChem BioAssay (NCI):
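The compound was tested at five concentrations on cells cultured in 96-well plates, with a 48-hour exposure period. Here, GI50 denotes the concentration required for 50% inhibition of growth. The concentration for full growth arrest is given as TGI.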

Assays:
Test in all cases: DTP human tumour cell line panel, 48 h
A549 NSCLC = tested on: A549 NSCLC
COLO 205 colon = tested on: COLO 205 colon
DU-145 prostate = tested on: DU-145 prostate
HS 578T breast = tested on: HS 578T breast
HT29 colon = tested on: HT29 colon
MDA-MB-435 = tested on: MDA-MB-435
NCI-H522 lung = tested on: NCI-H522 lung
OVCAR-8 ovarian = tested on: OVCAR-8 ovarian
T-47D breast = tested on: T-47D breast
U251 CNS = tested on: U251 CNS

Row | Compound | GI50 (A549 NSCLC) | TGI (A549 NSCLC) | GI50 (COLO 205 colon) | TGI (COLO 205 colon) | GI50 (DU-145 prostate) | TGI (DU-145 prostate) | GI50 (HS 578T breast) | TGI (HS 578T breast) | GI50 (HT29 colon) | GI50 (MDA-MB-435) | TGI (MDA-MB-435) | GI50 (NCI-H522 lung) | TGI (NCI-H522 lung) | GI50 (OVCAR-8 ovarian) | TGI (OVCAR-8 ovarian) | GI50 (T-47D breast) | TGI (T-47D breast) | GI50 (U251 CNS) | TGI (U251 CNS) | TGI (HT29 colon)
1 | CC(C)[C@]12O[C@H]1[C@@H]1O[C@]13[C@]1(O[C@H]1C[C@H]1C4=C(CC[C@@]13C)C(=O)OC4)[C@@H]2OC(=O)OC(C)(C)C | 0.0206 µM | > 100 µM | 0.014 µM | 0.0319 µM | 0.0204 µM | > 100 µM | 0.019 µM | 0.0713 µM | < 0.0121 µM | 0.0122 µM | 0.0478 µM | 0.0137 µM | 0.0635 µM | 0.0281 µM | > 100 µM | 0.027 µM | > 100 µM | 0.0253 µM | > 100 µM | 
2 | CCOC(=O)Cc1csc(Nc2nc(O)c(C3=c4ccccc4=NC3=O)s2)n1 | 32.4 µM | > 100 µM | 47.1 µM | > 100 µM | 24.6 µM | 56.7 µM | 47 µM | > 100 µM | 46 µM | 40.9 µM | > 100 µM | 27.2 µM | 97.6 µM | 43.7 µM | > 100 µM | 54.4 µM | > 100 µM | 19.2 µM | 39.6 µM | > 100 µM
3 | COc1cc2c3c(n(CCCNC(C)(C)CO)c(=O)c2cc1OC)-c1cc2c(cc1C3=O)OCO2 | 1.5 µM | 23.9 µM | 12.8 µM | > 67.5 µM | 0.819 µM | 16.3 µM | 24.5 µM | 80.7 µM | 1.08 µM | 4.52 µM | > 75.5 µM | 0.448 µM | > 21.8 µM | 1.18 µM | 22.4 µM | 3.47 µM | 47.6 µM | 0.233 µM | 28.4 µM | > 100 µM
4 | O=C1/C(=C\c2ccc(Cl)cc2)CN(C(=O)c2ccccc2)C/C1=C\c1ccc(Cl)cc1 | 3.15 µM | > 45.6 µM | 3.45 µM | 10.5 µM | 4.12 µM | > 56.4 µM | 2.92 µM | 9.17 µM | 1.66 µM | 2.58 µM | 8.04 µM | 3.22 µM | 10.8 µM | 3.41 µM | > 100 µM | 4.33 µM | > 100 µM | 1.57 µM | 3.26 µM | 5 µM
5 | CCOC(=O)c1cc2c(OC)cc(OC)cc2oc1=O |  | > 100 µM |  | > 100 µM |  | > 100 µM |  | > 100 µM |  |  | > 100 µM |  | > 100 µM |  | > 100 µM |  | > 100 µM |  | > 100 µM | > 100 µM
6 | Cc1ccc([I+]c2ccc(C)cc2)cc1 | 4.22 µM | > 100 µM | 6.93 µM | 95.2 µM | 12 µM | > 100 µM | 24.8 µM | > 100 µM | 0.887 µM | 5.28 µM | 77.3 µM | 12.3 µM | > 100 µM | 2.2 µM | 46.5 µM | 3.69 µM | 54.2 µM | 4.1 µM | > 100 µM | 27.4 µM
7 | CCN1C2=C(SC(=S)C1=C1SC(C(=O)c3ccccc3)=C(C(=O)c3ccccc3)S1)SC(=Nc1ccccc1)C2=O | > 100 µM | > 100 µM | > 100 µM | > 100 µM | 24.6 µM | > 100 µM | 2.58 µM | 72.9 µM | 16.5 µM | 9.41 µM | > 100 µM | 5.43 µM | > 20.8 µM | 2.34 µM | > 67.5 µM | 19.6 µM | > 100 µM | 3.39 µM | > 60.5 µM | > 100 µM
8 | O=C(NCCCNc1cc(-c2cn(-c3ccccc3)nc2-c2cccc(O)c2)ccn1)c1ccc(F)cc1 | 3.65 µM | 20.8 µM | 1.6 µM | 3.34 µM | 4.63 µM | 53.4 µM | 2.58 µM | 10.8 µM | 1.7 µM | 1.74 µM | 4.44 µM | 3.09 µM | 11.4 µM | 4.01 µM | 21.2 µM | 1.14 µM | 5.11 µM | 2.96 µM | 10.9 µM | 5.43 µM
9 | COc1ccc(C(=O)O[C@@H]2CCN3CC[C@H](C)[C@H]23)cc1 |  | > 100 µM |  | > 100 µM |  | > 100 µM |  | > 100 µM |  |  | > 100 µM |  | > 100 µM |  | > 100 µM |  | > 100 µM |  | > 100 µM | > 100 µM
